Laboratory results as given in patent publication US9187472B2 (AbbVie Inc., priority 2012, dated 2015).

Test system: PC3 cells
Test: NAMPT Cell Proliferation Assay
Assay type: cell-based
Settings: Homo sapiens, PC-3, 120 h, 5 days incubation, cell viability by Cell Titer Glo
Procedure, shortened: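 Following overnight attachment in RPMI with 10% heat-inactivated FBS, PC3 cells at 500 per well receive compounds spanning 10 μM down to 1×10^−5 μM. Growth is assessed by luminescent viability read after 5 days.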

Row | SMILES | IC50 [nM]
1 | O=C(NCc1ccn2ccnc2c1)Nc1ccc(C2CCN(C(=O)c3cnc4c(c3)CCCO4)CC2)cc1 [Example 1036, 1-{4-[1-(3,4-dihydro-2H-pyrano[2,3-b]pyridin-6-ylcarbonyl)piperidin-4-yl]phenyl}-3-(imidazo[1,2-a]pyridin-7-ylmethyl)urea] | 16
2 | O=C(NCc1ccn2ccnc2c1)Nc1ccc(C2CCN(C(=O)c3ccc4ccncc4c3)CC2)cc1 [Example 1037, 1-(imidazo[1,2-a]pyridin-7-ylmethyl)-3-{4-[1-(isoquinolin-7-ylcarbonyl)piperidin-4-yl]phenyl}urea] | 7.76
3 | O=C(NCc1ccn2ccnc2c1)Nc1ccc(C2CCN(C(=O)c3cnc4ccccc4n3)CC2)cc1 [Example 1038, 1-(imidazo[1,2-a]pyridin-7-ylmethyl)-3-{4-[1-(quinoxalin-2-ylcarbonyl)piperidin-4-yl]phenyl}urea] | 7.84
4 | COc1ncccc1/C=C/C(=O)N1CCC(c2ccc(NC(=O)NCc3ccn4ccnc4c3)cc2)CC1 [Example 1039, 1-(imidazo[1,2-a]pyridin-7-ylmethyl)-3-(4-{1-[(2E)-3-(2-methoxypyridin-3-yl)prop-2-enoyl]piperidin-4-yl}phenyl)urea] | 6.87
5 | O=C(NCc1ccn2ccnc2c1)Nc1ccc(C2CCN(C(=O)/C=C/c3ccccn3)CC2)cc1 [Example 1040, 1-(imidazo[1,2-a]pyridin-7-ylmethyl)-3-(4-{1-[(2E)-3-(pyridin-2-yl)prop-2-enoyl]piperidin-4-yl}phenyl)urea] | 13.4
6 | Cc1cc(Cl)c(C(=O)N2CCC(c3ccc(NC(=O)NCc4ccn5ccnc5c4)cc3)CC2)c(C)n1 [Example 1041, 1-(4-{1-[(4-chloro-2,6-dimethylpyridin-3-yl)carbonyl]piperidin-4-yl}phenyl)-3-(imidazo[1,2-a]pyridin-7-ylmethyl)urea] | 2.41
7 | Cc1cccn2cc(C(=O)N3CCC(c4ccc(NC(=O)NCc5ccn6ccnc6c5)cc4)CC3)nc12 [Example 1042, 1-(imidazo[1,2-a]pyridin-7-ylmethyl)-3-(4-{1-[(8-methylimidazo[1,2-a]pyridin-2-yl)carbonyl]piperidin-4-yl}phenyl)urea] | 3.59

Further lines, results first:

Row | IC50 [nM] | SMILES
8 | 10.4 | CCOc1cc(C(=O)N2CCC(c3ccc(NC(=O)NCc4ccn5ccnc5c4)cc3)CC2)ccn1 [Example 1043, 1-(4-{1-[(2-ethoxypyridin-4-yl)carbonyl]piperidin-4-yl}phenyl)-3-(imidazo[1,2-a]pyridin-7-ylmethyl)urea]
9 | 6.69 | Cn1c(C(=O)N2CCC(c3ccc(NC(=O)NCc4ccn5ccnc5c4)cc3)CC2)cc2occc21 [Example 1045, 1-(imidazo[1,2-a]pyridin-7-ylmethyl)-3-(4-{1-[(4-methyl-4H-furo[3,2-b]pyrrol-5-yl)carbonyl]piperidin-4-yl}phenyl)urea]
10 | 4.61 | CC1Cc2cc(C(=O)N3CCC(c4ccc(NC(=O)NCc5ccn6ccnc6c5)cc4)CC3)ccc2O1 (stereo not shown) [Example 1046, 1-(imidazo[1,2-a]pyridin-7-ylmethyl)-3-(4-{1-[(2-methyl-2,3-dihydro-1-benzofuran-5-yl)carbonyl]piperidin-4-yl}phenyl)urea]
11 | 0.205 | CCn1ncc(Cl)c1C(=O)N1CCC(c2ccc(NC(=O)NCc3ccn4ccnc4c3)cc2)CC1 [Example 1047, 1-(4-{1-[(4-chloro-1-ethyl-1H-pyrazol-5-yl)carbonyl]piperidin-4-yl}phenyl)-3-(imidazo[1,2-a]pyridin-7-ylmethyl)urea]
12 | 8.27 | N#Cc1cc(F)cc(C(=O)N2CCC(c3ccc(NC(=O)NCc4ccn5ccnc5c4)cc3)CC2)c1 [Example 1048, 1-{4-[1-(3-cyano-5-fluorobenzoyl)piperidin-4-yl]phenyl}-3-(imidazo[1,2-a]pyridin-7-ylmethyl)urea]
13 | 2.39 | O=C(NCc1ccn2ccnc2c1)Nc1ccc(C2CCN(C(=O)c3cccc4ccncc34)CC2)cc1 [Example 1049, 1-(imidazo[1,2-a]pyridin-7-ylmethyl)-3-{4-[1-(isoquinolin-8-ylcarbonyl)piperidin-4-yl]phenyl}urea]
